Non-standard residues stand in square brackets, D forms with d. Residues, ends and D or L forms follow the SMILES beside them. *: point of attachment. Nle = CCCC[C@H](N)C(=O)O; Cbz = O=C(OCc1ccccc1)*
Tests used:
[1] = test system: PIR-H1299 cells; assay: AlamarBlue cell viability assay; format: cell-based, human; details: 48 hours, 0.1 to 100 μM
Method: The effect of each hit compound on cell viability was tested at 11 different concentrations, ranging from 0.1-100 μM. PIR cells were plated onto 384-well microplates for 24 hours, and then treated for 48 h with the library compounds. Cell viability was determined using the colorimetric AlamarBlue® (Invitrogen) viability assay, according to the manufacturer's instructions.
Proteasome inhibitors are known to be particularly cytotoxic to malignant cells via multiple mechanisms. To directly test the effects of the new proteasome inhibitors discovered in this study on cell viability, PIR-expressing H1299 cells were treated for 48 hours with each of the four compounds, at a wide range of concentrations, ranging from 0.1 to 100 μM. The cells were then subjected to an Alamar Blue viability assay, which quantifies the number of metabolically active cells. […] For all proteasome inhibitors examined in this screen, there was a high correlation between proteasomal inhibitory activity and cell viability.

[2] = test system: purified rabbit 26S proteasomes; assay: In vitro proteasome activity assay, Suc-LLVY-AMC degradation; format: biochemical; details: MG132 control at 5 μM
Method: For measuring proteasome activity, purified 20S or 26S proteasomes prepared from rabbit muscles were incubated at a final concentration of 16 nM, with 100 μM fluorogenic 7-amido-4-methylcoumarin (AMC) tetrapeptide substrate Suc-LLVY-AMC (Bachem) and the stated concentration of the hit compounds in the presence of 100 μl of assay buffer (50 mM Hepes, 5 mM MgCl2, 2 mM ATP and 1 mM DTT). […] The time-dependent increase of hydrolyzed AMC groups was measured in a 96-well plate equilibrated to 37° C., using a Varioscan multi-well plate reader (Thermo Fisher Scientific, Inc.) in a kinetic mode, in which the recording intervals were set to 1 minute. The excitation wavelength was 370 nm; fluorescence emission was recorded at 465 nm.
To directly test the capacity of the four compounds to inhibit activity in mammalian proteasomes, an in vitro activity assay was performed in which the hit compounds were tested for their effects on the degradation of the model fluorogenic tetrapeptide LLVY-AMC by purified rabbit 26S proteasomes.

[3] = molecular target: T1, proteasome (Homo sapiens, UniProt P28072+P28074+Q99436); assay: Western blot for accumulation of polyubiquitinated proteins and β-catenin in H1299-PIR cells; format: cell-based; details: 6 hours
T1 construct: endogenous in cells; host or cells: H1299-PIR (H1299 stably expressing the p53-YFP reporter)
Method: H1299-PIR cells were lysed with radioimmune precipitation assay buffer (1% NP-40, 1% sodium deoxycholate, 0.1% SDS, 150 mM NaCl, 50 mM Tris, pH 8.0) containing a protease inhibitor cocktail from Roche Applied Science. Protein extracts were subjected to 8% SDS-PAGE, transferred to a nitrocellulose membrane (Whatman), and probed with monoclonal anti-p53 (DO1, Santa Cruz Biotechnology), anti-ubiquitin (Covance), anti-β-catenin (Sigma) and anti-β-tubulin (Sigma) primary antibodies.
One characteristic outcome of proteasome inhibition is the accumulation of ubiquitinated proteins in the treated cells. […] Following incubation, cell extracts were analyzed by Western blot, using anti-ubiquitin and anti-β-catenin antibodies.

[4] = molecular target: T1, proteasome; assay: Image-based PIR nuclear translocation assay in H1299-PIR reporter cells; format: cell-based; details: for PIR nuclear translocation in the NCI Diversity Set screen: 1 and 10 μM, 12 hours incubation; for PIR nuclear translocation upon treatment with known proteasome inhibitors: H1299-PIR cells, 6 hours, microscopy
Source text: To construct a YFP-tagged Proteasome Inhibitor Reporter (PIR) protein, cDNA encoding a full-length human p53 R175H mutant was amplified by PCR from a cDNA clone, and three consecutive lysine residues in the bipartite Nuclear Localization Signal (NLS) were replaced with alanines by PCR-based, site-directed mutagenesis [Higuchi R, et al., (1988) Nucleic Acids Res 16: 7351-7367; Ho S N, et al (1989) Gene 77: 51-59]. The DNA fragment was cloned into the BglII and NotI sites of pLPCX retroviral vector (Clontech) in-frame to the N-terminus of the yellow fluorescent protein (YFP), using the NotI/ClaI restriction sites. The PIR protein was expressed in an H1299 non-small cell lung carcinoma cell line, following retroviral infection, and the cells were cultured in RPMI 1640 medium containing 10% fetal bovine serum, 2 mM glutamine and 1% penicillin-streptomycin (all from Sigma-Aldrich) in a humidified atmosphere of 5% CO2 at 37° C. Fluorescent cells were isolated by flow cytometry, and single-cell cloning was used to generate a morphologically uniform cell population.
PIR-expressing H1299 cells were seeded at a density of 800 cells per well in 384-well assay plates (F-bottom, μClear, black, tissue-culture-treated) (Greiner Bio-One). Cells were cultured for 24 hours and treated with the library compounds at two concentrations (1 and 10 μM) in RPMI 1640. In each assay plate, cells in 24 wells treated with 0.2% DMSO alone were used as controls. […] Following 12 hours of incubation, cells were fixed in 3% paraformaldehyde for 20 minutes, then washed with PBS and screened for localization of the PIR protein.
WiScan™ Cell Imaging System (Idea Bio-Medical) was used for this screen [Paran Y et al., 2006, Methods Enzymol 414: 228-247]. The system is based on an IX71 microscope (Olympus), equipped with a fast laser AutoFocus device and an automated stage. Thirty-six fields were acquired from every well using a 60×/0.9 air objective, stored, and tiled into montages to detect consistent effects. Scoring of the nuclear translocation of the fluorescent PIR protein was carried out manually.
The cells were then fixed and scored for nuclear translocation of PIR.

[5] = test system: NCI-60 panel of human tumor cell lines; details: molar concentration, cited from earlier work; for average −log10 GI50 over the panel: all NCI-60 cell lines; for overall −log10 GI50, leukemia cells: leukemia subpanel
[6] = molecular target: T1, proteasome; details: after 20 hours of treatment, flow cytometry; cited from earlier work
[7] = molecular target: proteasome β2, β1 and β5 activities (Homo sapiens, UniProt P28072+P28074+Q99436); assay: Inhibition of tryptic-, caspase- and chymotrypsin-like proteasome activities; format: biochemical
[8] = test system: MCF10A; assay: Cell viability, normal breast epithelial cell line; format: cell-based, human; details: considerably higher concentration than for MDA-MB-231
[9] = test system: MDA-MB-231 cells; assay: Cell viability, malignant breast carcinoma cells; format: cell-based, human

proteasome β2, β1 and β5 activities, sequence (Q99436 44-277): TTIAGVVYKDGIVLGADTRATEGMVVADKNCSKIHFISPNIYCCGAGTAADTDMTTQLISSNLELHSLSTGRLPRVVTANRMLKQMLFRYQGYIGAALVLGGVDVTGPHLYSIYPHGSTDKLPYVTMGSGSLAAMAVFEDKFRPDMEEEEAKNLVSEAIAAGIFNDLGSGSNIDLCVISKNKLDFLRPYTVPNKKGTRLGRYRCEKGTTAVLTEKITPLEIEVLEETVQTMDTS
proteasome β2, β1 and β5 activities, sequence (P28072 whole entry): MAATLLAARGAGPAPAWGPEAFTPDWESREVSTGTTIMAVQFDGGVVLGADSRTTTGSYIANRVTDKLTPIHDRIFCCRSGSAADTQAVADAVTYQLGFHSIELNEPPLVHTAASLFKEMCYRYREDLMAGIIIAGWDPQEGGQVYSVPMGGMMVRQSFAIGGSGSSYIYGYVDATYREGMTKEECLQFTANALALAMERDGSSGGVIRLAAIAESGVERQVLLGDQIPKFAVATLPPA
proteasome β2, β1 and β5 activities, sequence (P28074 60-263): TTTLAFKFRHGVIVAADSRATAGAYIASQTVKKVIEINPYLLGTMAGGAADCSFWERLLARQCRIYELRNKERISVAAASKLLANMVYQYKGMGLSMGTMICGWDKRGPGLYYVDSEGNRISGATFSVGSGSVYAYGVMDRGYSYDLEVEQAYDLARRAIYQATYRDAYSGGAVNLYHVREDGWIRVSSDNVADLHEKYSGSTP
proteasome β2, β1 and β5 activities, sequence (P49720 whole entry partner): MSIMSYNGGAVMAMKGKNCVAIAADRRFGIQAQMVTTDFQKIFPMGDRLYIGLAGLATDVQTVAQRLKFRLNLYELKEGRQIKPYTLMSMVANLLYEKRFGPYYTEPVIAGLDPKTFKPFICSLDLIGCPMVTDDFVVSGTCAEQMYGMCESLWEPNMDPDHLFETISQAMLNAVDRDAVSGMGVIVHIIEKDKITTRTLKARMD

## 8-Quinolinol salicylate [NSC3907]
[1]
  GI50: 47000 nM
[2]; 100 μM compound
  inhibition of LLVY-AMC degradation by purified 26S proteasome: only a minor effect
[3]; 20 μM
  accumulation of polyubiquitinated proteins and β-catenin (inhibitory effect on proteasomal degradation): less of an inhibitory effect
[4]
  PIR nuclear translocation in the NCI Diversity Set screen: positive in the assay
[5]
  average −log10 GI50 over the panel: 5.3
  overall −log10 GI50, leukemia cells: 6.249

## CCCC[C@@H](C=O)NC(=O)[C@H](CC(C)C)NC(=O)[C@H](CC(C)C)NC(C)=O [ALLN, reference compound] (Ac-Leu-Leu-[Nle]-aldehyde)
[4]
  PIR nuclear translocation upon treatment with known proteasome inhibitors: PIR translocates into the nucleus

## CC(C)C[C@H](NC(=O)[C@H](Cc1ccccc1)NC(=O)c1cnccn1)B(O)O [Bortezomib, Pyz-Phe-boroLeu, reference compound]
[4]
  PIR nuclear translocation upon treatment with known proteasome inhibitors: PIR translocates into the nucleus

## CC(C)C[C@@H](C=O)NC(=O)[C@H](CC(C)C)NC(=O)[C@H](CC(C)C)NC(=O)OCc1ccccc1 [MG132, reference compound] (Cbz-Leu-Leu-Leu-aldehyde)
[6]
  concentration at which MG132 is detected: 2.5 µM
[4]
  PIR nuclear translocation upon treatment with known proteasome inhibitors: PIR translocates into the nucleus

## NC(CCC(=O)O)C(=O)O (centres unmarked) [NSC99671]
[1]
  GI50: 96000 nM
[2]; 30 μM compound
  inhibition of LLVY-AMC degradation by purified 26S proteasome: moderate inhibitory effect
[3]; 50 μM
  accumulation of polyubiquitinated proteins and β-catenin (inhibitory effect on proteasomal degradation): less of an inhibitory effect
[4]
  PIR nuclear translocation in the NCI Diversity Set screen: positive in the assay
[5]
  average −log10 GI50 over the panel: 4.1
  overall −log10 GI50, leukemia cells: 4.473

## CS/C([S-])=N/N=C/c1cccc(C)n1.CS/C([S-])=N/N=C/c1cccc(C)n1.[Cu+2] [NSC310551]
[1]
  GI50: 270 nM
[2]; 30 μM compound
  inhibition of LLVY-AMC degradation by purified 26S proteasome: levels of inhibition comparable to that of MG132
[3]; 0.3 μM
  accumulation of polyubiquitinated proteins and β-catenin (inhibitory effect on proteasomal degradation): inhibitory activity comparable to that of 5 μM MG132
[4]
  PIR nuclear translocation in the NCI Diversity Set screen: positive in the assay
[5]
  average −log10 GI50 over the panel: 6.6
  overall −log10 GI50, leukemia cells: 7.028

## CSC(=[SH+])[N-]N=C(c1ccccn1)c1ccccn1.[Cu][Br] [NSC321206]
[7]
  inhibition of Tryptic like (β2), Caspase like (β1) and Chymotrypsin like (β5) activities of the proteasome: observed inhibition
[8]
  effect on cell viability: only partially affected
[1]
  GI50: 170 nM
[2]; 30 μM compound
  inhibition of LLVY-AMC degradation by purified 26S proteasome: levels of inhibition comparable to that of MG132
[3]; 0.15 μM
  accumulation of polyubiquitinated proteins and β-catenin (inhibitory effect on proteasomal degradation): inhibitory activity comparable to that of 5 μM MG132
[4]
  PIR nuclear translocation in the NCI Diversity Set screen: positive in the assay
[5]
  average −log10 GI50 over the panel: 7.2
  overall −log10 GI50, leukemia cells: 7.73
[9]; MDA-MB-231
  GI50: 400 nM
[9]; MDA-MB-231, 1 μM
  effect on cell viability: effectively eliminated all MDA-MB-231 cells

From US9289433B2, “Proteasome inhibitors and uses thereof” (Yeda Research and Development Co. Ltd., priority 2009, dated 2016)
